Reference: patent US11384063B2, “Modulators of estrogen receptor proteolysis and associated methods of use” (Arvinas Operations, Inc., priority 2017, dated 2022)
Where a name gives a salt, the structure may show the parent alone.

Experiments:
ERα [1] = target: T1, ERα (Homo sapiens, UniProt P03372); test: ERE luciferase reporter gene assay in T47D-KBluc cells (target engagement); assay type: cell-based; parameters: T47D human breast cancer cells stably transfected with estrogen responsive element/promoter/luciferase reporter gene; host or cells: T47D-KBluc cells; settings: 10% FBS, 24 hours, Table 3 cereblon centric PROTACs, read-out: ER-α Luciferase IC50
T1 sequence (P03372 1-595): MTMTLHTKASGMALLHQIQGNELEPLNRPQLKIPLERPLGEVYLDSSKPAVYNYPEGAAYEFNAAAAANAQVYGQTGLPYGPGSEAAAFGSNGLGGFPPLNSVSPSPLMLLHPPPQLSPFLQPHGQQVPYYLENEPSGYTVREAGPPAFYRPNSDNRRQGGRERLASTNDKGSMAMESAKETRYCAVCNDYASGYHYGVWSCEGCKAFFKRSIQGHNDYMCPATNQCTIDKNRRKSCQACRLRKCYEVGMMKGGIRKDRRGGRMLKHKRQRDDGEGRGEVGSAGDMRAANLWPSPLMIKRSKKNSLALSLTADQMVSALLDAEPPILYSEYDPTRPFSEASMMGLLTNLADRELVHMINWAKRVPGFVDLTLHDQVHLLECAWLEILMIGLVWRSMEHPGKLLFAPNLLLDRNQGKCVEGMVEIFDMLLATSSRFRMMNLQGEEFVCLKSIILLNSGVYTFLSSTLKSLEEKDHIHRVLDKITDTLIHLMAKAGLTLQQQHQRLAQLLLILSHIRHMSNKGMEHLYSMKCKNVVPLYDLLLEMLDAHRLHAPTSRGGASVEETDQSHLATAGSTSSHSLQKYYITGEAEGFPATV
Method in brief: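 T47D-KBluc breast cancer cells, which carry a stable ERE-luciferase reporter, were grown in RPMI with 10% FBS (about 10 pM estrogen) and exposed to PROTACs for 24 h. The 12-point, 3-fold series ran from 300 nM to 2 pM. Luciferase was read after lysis, and IC50 was fitted from duplicates.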

ERα [2] = target: T1, ERα; test: Estrogen receptor-alpha (ERα) degradation assay in MCF7 cells using In-Cell Western assay; assay type: cell-based; parameters: assessed for their activity in degrading ERα in MCF-7 cells via western blot; endogenous in cells; host or cells: MCF7 cells; settings: ER-alpha degradation in MCF7 cells, 5 days of incubation
Method in brief: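 MCF7 cells treated 3 or 5 days at 37 °C with 11-point 3-fold dilutions from 1 μM final top. Fixed cells immunostained for ERα and tubulin, read by infrared imaging at 700/800 nm. ERα normalized to tubulin then to DMSO vehicle; DC50 and Dmax from 4-parameter curve fit.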

SMILES | IC50 (ERα [1]) [nM] | DC50 (ERα [2]) [nM] | Dmax (ERα [2]) [%]
O=C1CCC(N2Cc3cc(N4CCC(CN5CC(c6ccc(Oc7c(-c8ccc(Br)cc8)sc8cc(O)ccc78)cc6)C5)CC4)ccc3C2=O)C(=O)N1 (centres unmarked) [Compound 216, 3-[5-[4-[[3-[4-[2-[4-bromophenyl)-6-hydroxy-benzothiophen-3-yl]oxyphenyl]azetidin-1-yl]methyl]-1-piperidyl]-1-oxo-isoindolin-2-yl]piperidine-2,6-dione] | 2.7 | 1 to 10 | 50 to 75
O=C1CCC(N2Cc3cc(NCCCN4CCN(CCOc5ccc(Oc6c(-c7ccc(C(F)(F)F)cc7)sc7cc(O)ccc67)cc5)CC4)ccc3C2=O)C(=O)N1 (centres unmarked) [Compound 179] | 1 | 1 to 10 | 50 to 75
O=C1CCC(N2C(=O)c3ccc(N4CCN(CCOCc5ccc(Oc6c(-c7ccc(Br)cc7)sc7cc(O)ccc67)cc5)CC4)cc3C2=O)C(=O)N1 (centres unmarked) [Compound 225, 5-[4-[2-[[4-[2-(4-bromophenyl)-6-hydroxy-benzothiophen-3-yl]oxyphenyl]methoxy]ethyl]piperazin-1-yl]-2-(2,6-dioxo-3-piperidyl)isoindoline-1,3-dione] | 4.8 |  | < 50
O=C1CCC(N2Cc3nc(N4CCN(CC5CCN(c6ccc(Oc7c(-c8ccc(F)cc8)sc8cc(O)ccc78)cc6)CC5)CC4)ccc3C2=O)C(=O)N1 (centres unmarked) [Compound 230, 3-[2-[4-[[1-[4-[2-(4-fluorophenyl)-6-hydroxy-benzothiophen-3-yl]oxyphenyl]-4-pipendyl]methyl]piperazin-1-yl]-5-oxo-7H-pyrrolo[3,4-b]pyridin-6-yl]piperidine-2,6-dione] | 1.1 | 1 to 10 | > 75
O=C1CCC(N2Cc3c(cc(F)c(N4CCN(C5CCN(CCOc6ccc(Oc7c(-c8ccc(Br)cc8)sc8cc(O)ccc78)cc6)CC5)CC4)c3F)C2=O)C(=O)N1 (centres unmarked) [Compound 205, 3-[5-[4-[1-[2-[4-[2-(4-bromophenyl)-6-hydroxybenzothiophen-3-yl]oxyphenoxy]ethyl]-4-piperidyl]piperazin-1-yl]-4,6-difluoro-1-oxo-isoindolin-2-yl]piperidine-2,6-dione] | 3.5 | 10 to 100 | > 75
O=C1CCC(N2Cc3cc(N4CCN(CCCCc5ccc(Oc6c(-c7ccc(Br)cc7)sc7cc(O)ccc67)cc5)CC4)ccc3C2=O)C(=O)N1 (centres unmarked) [Compound 215, 3-[5-[4-[4-[4-[2-(4-bromophenyl)-6-hydroxybenzothiophen-3-yl]oxyphenyl]butyl]piperazin-1-yl]-1-oxo-isoindolin-2-yl]piperidine-2,6-dione] | 5.3 | 1 to 10 | 50 to 75
O=C1CCC(N2C(=O)c3ccc(N4CCN(CC5CCN(c6ccc(Oc7c(-c8ccc(O)cc8)sc8cc(O)ccc78)cc6)CC5)CC4)cc3C2=O)C(=O)N1 (centres unmarked) [Compound 245, 2-(2,6-dioxo-3-piperidyl)-5-[4-[[1-[4-[6-hydroxy-2-(4-hydroxyphenyl)benzothiophen-3-yl]oxyphenyl]-4-piperidyl]methyl]piperazin-1-yl]isoindoline-1,3-dione] | 0.53 | 10 to 100 | 50 to 75
COc1ccc(-c2sc3cc(O)ccc3c2Oc2ccc(N3CCC(CN4CCN(c5ccc6c(c5)C(=O)N(C5CCC(=O)NC5=O)C6=O)CC4)CC3)cc2)cc1 (centres unmarked) [Compound 237, 2-(2,6-dioxo-3-piperidyl)-5-[4-[[1-[4-[6-hydroxy-2-(4-methoxyphenyl)benzothiophen-3-yl]oxyphenyl]-4-piperidyl]methyl]piperazin-1-yl]isoindoline-1,3-dione] | 4.9 | 10 to 100 | > 75
O=C1CCC(N2C(=O)c3ccc(N4CCC(CN5CC(c6ccc(Oc7c(-c8ccc(Br)cc8)sc8cc(O)ccc78)cc6)C5)CC4)cc3C2=O)C(=O)N1 (centres unmarked) [Compound 214] | 10.4 | 1 to 10 | 50 to 75
O=C1CCC(N2Cc3cc(N4CCN(CC5CCN(c6ccc(Oc7c(-c8ccc(Br)cc8)sc8cc(O)ccc78)cc6F)CC5)CC4)ccc3C2=O)C(=O)N1 (centres unmarked) [Compound 238, 3-[5-[4-[[1-[4-[2-(4-bromophenyl)-6-hydroxy-benzothiophen-3-yl]oxy-2-fluoro-phenyl]-4-piperidyl]methyl]piperazin-1-yl]-1-oxo-isoindolin-2-yl]piperidine-2,6-dione] | 10.9 | 10 to 100 | > 75
O=C1CCC(N2Cc3cc(N4CCN(C5CCN(CCOc6ccc(Oc7c(-c8ccc(Br)cc8)sc8cc(O)ccc78)cc6)CC5)CC4)ccc3C2=O)C(=O)N1 (centres unmarked) [Compound 194, 3-[5-[4-[1-[2-[4-[2-(4-bromophenyl)-6-hydroxybenzothiophen-3-yl]oxyphenoxy]ethyl]-4-piperidyl]piperazin-1-yl]-1-oxo-isoindolin-2-yl]piperidine-2,6-dione] | 3.9 | 1 to 10 | > 75
O=C1CCC(N2C(=O)c3ccc(C4CCN(C5CCN(CCOc6ccc(Oc7c(-c8ccc(Br)cc8)sc8cc(O)ccc78)cc6)CC5)CC4)cc3C2=O)C(=O)N1 (centres unmarked) [Compound 190, 5-(1′-(2-(4-((2-(4-bromophenyl)-6-hydroxybenzo[b]thiophen-3-yl)oxy)phenoxy)ethyl)-[1,4′-bipiperidin]-4-yl)-2-(2,6-dioxopiperidin-3-yl)isoindoline-1,3-dione Hydrochloride] | 11.6 | 1 to 10 | 50 to 75
COc1ccc2c(Oc3ccc(OCCN4CCN(CCCNc5ccc6c(c5)CN(C5CCC(=O)NC5=O)C6=O)CC4)cc3)c(-c3ccc(O)cc3)sc2c1 (centres unmarked) [Compound 181, 3-[5-[3-[4-[2-[4-[2-(4-hydroxyphenyl)-6-methoxy-benzothiophen-3-yl]oxyphenoxy]ethyl]piperazin-1-yl]propylamino]-1-oxo-isoindolin-2-yl]piperidine-2,6-dione] | 2.2 | 1 to 10 | 50 to 75
